Target: T1, EGFR TMLRCS (BaF3-TMLRCS cell line) (Homo sapiens, UniProt P00533, C797S/L858R/T790M)
T1 construct: host or cells: BaF3 (murine pro-B cells) engineered to express EGFR TMLRCS
Assay: HTRF Phospho EGFR TMLRCS assay (cellular)
Type: cell-based
Conditions: BaF3-TMLRCS cells, 4 hours incubation
Protocol: HTRF Phospho EGFR TMLRCS Assay (Cellular)
BaF3-TMLRCS cell line were obtained from Crownbio (San Diego, CA, USA). Cells were maintained at 37° C., 5% CO2 in RPMI ATCC (Gibco 31870) + 2 mM Glutamine + 0.5 µg/ml Puromycin supplemented with 10% fetal bovine serum (FBS) (Gibco).
Cells are transferred as above to Greiner Bio-One, Nr. 784-08 micro-titerplate at 20000 cells/well in 12.5 µl of growth medium/well after the plates had been pre-filled with 12.5 nl of DMSO solutions of the to be tested compound (in dose response) or DMSO only. After spinning the plates at 300 × g for 30 seconds the cells were incubated for 4 hours at 37C, 5% CO2, 95% humidity. The cells were lysed by adding to the compound mix 4 µl/well of the supplemented lysis buffer (Cis-bio, Phospho-EGFR HTRF kit, 64EG1PEH), followed by incubation for 30 min at room temperature with shaking (400 rpm). The plates were then frozen and stored overnight at -80C. […] The lidded plates were then incubated for 4 h at room temperature before reading the fluorescence emission at 616 and 665 nm using an Envision reader (Perkin Elmer). Data was analyzed in similar fashion as above using the normalized ratio of the 665 to 616 signals multiplied by 10000.

T1 sequence (P00533 25-1210 T790M/C797S/L858R): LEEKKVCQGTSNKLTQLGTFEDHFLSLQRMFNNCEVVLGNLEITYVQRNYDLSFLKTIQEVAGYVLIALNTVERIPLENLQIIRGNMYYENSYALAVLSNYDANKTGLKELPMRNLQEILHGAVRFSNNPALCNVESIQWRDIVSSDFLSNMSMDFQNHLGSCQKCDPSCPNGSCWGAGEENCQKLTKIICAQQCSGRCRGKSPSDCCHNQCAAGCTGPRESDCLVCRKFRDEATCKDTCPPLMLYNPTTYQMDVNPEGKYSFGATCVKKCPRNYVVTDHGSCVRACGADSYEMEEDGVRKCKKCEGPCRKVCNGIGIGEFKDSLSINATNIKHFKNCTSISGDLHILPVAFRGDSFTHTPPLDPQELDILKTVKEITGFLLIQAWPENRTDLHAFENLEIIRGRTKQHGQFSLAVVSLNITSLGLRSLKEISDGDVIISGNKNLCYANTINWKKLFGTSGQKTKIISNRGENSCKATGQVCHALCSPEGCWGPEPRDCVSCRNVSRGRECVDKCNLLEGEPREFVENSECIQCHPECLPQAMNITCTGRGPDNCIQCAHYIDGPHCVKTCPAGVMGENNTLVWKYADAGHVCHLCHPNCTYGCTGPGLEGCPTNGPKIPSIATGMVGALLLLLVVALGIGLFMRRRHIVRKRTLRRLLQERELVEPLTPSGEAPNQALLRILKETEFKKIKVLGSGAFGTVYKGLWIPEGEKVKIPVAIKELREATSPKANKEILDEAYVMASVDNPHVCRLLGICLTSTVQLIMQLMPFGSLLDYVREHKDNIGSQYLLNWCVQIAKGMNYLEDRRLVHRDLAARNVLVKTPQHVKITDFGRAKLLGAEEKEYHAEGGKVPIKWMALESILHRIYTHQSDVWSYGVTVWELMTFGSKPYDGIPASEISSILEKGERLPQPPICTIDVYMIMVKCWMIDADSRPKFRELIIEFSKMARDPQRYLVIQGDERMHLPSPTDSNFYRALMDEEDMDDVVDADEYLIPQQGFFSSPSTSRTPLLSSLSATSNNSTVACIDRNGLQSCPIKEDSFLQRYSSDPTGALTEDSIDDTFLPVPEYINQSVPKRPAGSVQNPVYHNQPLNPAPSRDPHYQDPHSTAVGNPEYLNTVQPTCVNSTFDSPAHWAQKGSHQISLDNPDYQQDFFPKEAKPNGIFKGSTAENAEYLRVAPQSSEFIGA

## O=C(Nc1nccs1)C(c1ncn2c1CCC2)N1Cc2c(Cl)cc(C#Cc3ccc(CN4CCC(CO)CC4)cc3)cc2C1=O (racemic) [Example 1, 2-[4-chloro-6-[2-[4-[[4-(hydroxymethyl)-1-piperidyl]methyl]phenyl]ethynyl]-1-oxo-isoindolin-2-yl]-2-(6,7-dihydro-5H-pyrrolo[1,2-c]imidazol-1-yl)-N-thiazol-2-yl-acetamide]
  IC50: 3 nM
